From publication PMC10196118, “Evidence for broad cross-reactivity of the SARS-CoV-2 NSP12-directed CD4^+ T-cell response with pre-primed responses directed against common cold coronaviruses” (Frontiers in Immunology, 2023)

Tested on: pre-cultured PBMCs (NSP12-specific T cells)
Assay: IFN-γ ELISpot with single 15-mer peptides after 11–13 days in vitro peptide-pool T-cell expansion
Type: cell-based, human
Conditions: for peptide-specific response, donor HH-N12-18, post COVID-19 / peptide-specific response, donor HH-N12-34, post COVID-19 / peptide-specific response, donor HH-N12-35, post COVID-19 / peptide-specific response, donor HH-N12-36, post COVID-19 / peptide-specific response, donor HH-N12-37, post COVID-19 / peptide-specific T-cell response, donor HH-N12-18, post COVID-19 / peptide-specific T-cell response, donor HH-N12-34, post COVID-19 / peptide-specific T-cell response, donor HH-N12-35, post COVID-19 / peptide-specific T-cell response, donor HH-N12-36, post COVID-19 / peptide-specific T-cell response, donor HH-N12-37, post COVID-19: sample post COVID-19; for peptide-specific response, donor HH-N12-18, post COVID-19 / peptide-specific response, donor HH-N12-18, pre COVID-19 / peptide-specific response, donor HH-N12-34, post COVID-19 / peptide-specific response, donor HH-N12-34, pre COVID-19 / peptide-specific response, donor HH-N12-35, post COVID-19 / peptide-specific response, donor HH-N12-35, pre COVID-19 / peptide-specific response, donor HH-N12-36, post COVID-19 / peptide-specific response, donor HH-N12-36, pre COVID-19 / peptide-specific response, donor HH-N12-37, post COVID-19 / peptide-specific response, donor HH-N12-37, pre COVID-19: single NSP12 15-mer peptides; for peptide-specific response, donor HH-N12-18, pre COVID-19 / peptide-specific response, donor HH-N12-34, pre COVID-19 / peptide-specific response, donor HH-N12-35, pre COVID-19 / peptide-specific response, donor HH-N12-36, pre COVID-19 / peptide-specific response, donor HH-N12-37, pre COVID-19 / peptide-specific T-cell response, donor HH-N12-18, pre COVID-19 / peptide-specific T-cell response, donor HH-N12-34, pre COVID-19 / peptide-specific T-cell response, donor HH-N12-35, pre COVID-19 / peptide-specific T-cell response, donor HH-N12-36, pre COVID-19 / peptide-specific T-cell response, donor HH-N12-37, pre COVID-19: sample pre COVID-19; for peptide-specific T-cell response, donor HH-N12-18, post COVID-19 / peptide-specific T-cell response, donor HH-N12-18, pre COVID-19 / peptide-specific T-cell response, donor HH-N12-34, post COVID-19 / peptide-specific T-cell response, donor HH-N12-34, pre COVID-19 / peptide-specific T-cell response, donor HH-N12-35, post COVID-19 / peptide-specific T-cell response, donor HH-N12-35, pre COVID-19 / peptide-specific T-cell response, donor HH-N12-36, post COVID-19 / peptide-specific T-cell response, donor HH-N12-36, pre COVID-19 / peptide-specific T-cell response, donor HH-N12-37, post COVID-19 / peptide-specific T-cell response, donor HH-N12-37, pre COVID-19: single NSP12 15-mer peptide, 0 = no response

Sequence	peptide-specific response, donor HH-N12-18, post COVID-19	peptide-specific response, donor HH-N12-18, pre COVID-19	peptide-specific response, donor HH-N12-34, post COVID-19	peptide-specific response, donor HH-N12-34, pre COVID-19	peptide-specific response, donor HH-N12-35, post COVID-19	peptide-specific response, donor HH-N12-35, pre COVID-19	peptide-specific response, donor HH-N12-36, post COVID-19	peptide-specific response, donor HH-N12-36, pre COVID-19	peptide-specific response, donor HH-N12-37, post COVID-19	peptide-specific response, donor HH-N12-37, pre COVID-19	peptide-specific T-cell response, donor HH-N12-18, post COVID-19	peptide-specific T-cell response, donor HH-N12-18, pre COVID-19	peptide-specific T-cell response, donor HH-N12-34, post COVID-19	peptide-specific T-cell response, donor HH-N12-34, pre COVID-19	peptide-specific T-cell response, donor HH-N12-35, post COVID-19	peptide-specific T-cell response, donor HH-N12-35, pre COVID-19	peptide-specific T-cell response, donor HH-N12-36, post COVID-19	peptide-specific T-cell response, donor HH-N12-36, pre COVID-19	peptide-specific T-cell response, donor HH-N12-37, post COVID-19	peptide-specific T-cell response, donor HH-N12-37, pre COVID-19
QHEETIYNLLKDCPA [compound 17]	0	0	0	0	0	0	0	0	0.021	0										
EDDNLIDSYFVVKRH [compound 13]	0	0	0	0	0	0	0	0	0	0										
MLKTVYSDVENPHLM [compound 121]	0	0	0	0	0	0	0.052	0	0	0										
VAKHDFFKFRIDGDM [compound 20]	0	0	0	0	0	0	0	0	0	0										
NFKSVLYYQNNVFMS [compound 157]											0.3	0	0	0	0	0	0	0	0	0
ASQGLVASIKNFKSV [compound 155]											0	0	0	0	0	0	0	0	0	0
MRNAGIVGVLTLDNQ [compound 40]	0	0	0.032	0	0	0	0	0	0	0										
TSTDVVYRAFDIYND [compound 6]	0	0	0	0	0	0	0	0	0	0										
TNCCRFQEKDEDDNL [compound 11]	0	0.035	0	0	0	0	0	0	0	0										
FFKFRIDGDMVPHIS [compound 21]	0	0	0	0	0	0	0	0	0	0										
HVDTDLTKPYIKWDL [compound 52]	0	0	0	0	0	0	0	0	0.022	0										
DFIQTTPGSGVPVVD [compound 45]	0	0	0	0.017	0	0	0	0	0	0										
VPVVDSYYSLLMPIL [compound 47]	0.082	0	0	0	0.02	0	0	0	0	0										
IDSYFVVKRHTFSNY [compound 14]	0	0	0	0	0	0	0	0	0	0										
